The source of these data is patent publication US3971814A, “Benzo(b)thiophene derivatives” (priority 1972, dated 1976).

“Also recorded” adds a separate entry of the source.

Data set [1] concerns Carrageenin Edema of the Rat Paw. Kind of data set: Carrageenin edema of the rat paw. The class given is in vivo. The procedure: test animals used are the same as stated under Example B and up to the initial measurement, the procedure corresponded to that described under this example.
After an initial measurement, the test substances are administered and after 60 minutes a 1% Carrageenin suspension is injected subplantarly (0.1 ml/paw). After 60 and 180 minutes the paw volume is again determined. Here, too, the blank control group was treated with the carrier alone.
The increase in the volume of the paw after 60 minutes is considered as the first phase of the biphase edema and that after 180 minutes, as compared to the 60-minute-value, as the second phase. Moreover, the total increase of the paw edema within 180 minutes, as compared to the initial value, is also determined.
Determination of the influence exerted by the substances upon the development of the paw edema and calculation of the ED50 are done as under Example B.
A general note: Carrageenan injected into the paw causes an acute inflammation.

For data set [2], the system named is Kaolin Edema of the Rat Paw. Kind of data set: Kaolin edema of the rat paw. The format is in vivo. The procedure: test animals used are the same as stated under Example B and up to the beginning of the test, the procedure corresponded to that described under this example.
After an initial measurement, a sterile 25% kaolin suspension was injected (0.05 ml/paw) subplantarly. The test substances are administered immediately, and after 60, 120, and 180 minutes the paw volume is again determined.
Evaluation of the tests was performed as stated under Example C, and the results so obtained presented below: […]

The test system of data set [3] is Granulation Tissue. Description: Cotton-pellet test (granulation tissue). The class given is in vivo. The conditions noted are these: rat; for Granulation Tissue % (Dry Weight) / Increase in Body Weight: i.g. The procedure:
test animals are male rats (SIV 50) weighing 110 to 200 g. All test animals are kept fasting for 16 to 18 hours prior to the implantation of the pellets; after that food and water were available ad libitum. Each dose level of the chemical tested was administered to 12 animals. The substances were suspended in 1% Tragacanth mucilage and administered intragastrically by means of a stomach tube. The substances to be investigated and the control suspensions are administered once on the operating day following operation, and twice a day on the following 6 days (at intervals of 6 to 8 hours). The type of application and volume of liquid corresponded to that under B.
Under light ether anesthesia 4 sterile cotton pellets were implanted under the skin on the back of the animal. The weight of one pellet was 50 mg ± 0.5 mg. After 7 days treatment, the animals were sacrificed, the pellets removed with the granulation tissue, weighed and then dried in the incubator at +80°C to constant weight. The average dry weight of the granulation tissue of the control group was rated 100%, and deviations of the mean weights of the group treated with the test substance determined as a percentage thereof.
The weight of the animals is measured daily throughout the tests, and the percental increase determined. At the end of some tests, moreover, the suprarenal glands are removed and their weight determined.

For data set [4], the system named is Arthritis Induced by the Freund Adjuvant. Description: Adjuvant arthritis. The format is in vivo. The conditions noted are these: rat, i.g. The procedure: test animals used are the same as described under Example E; food and water is given ad libitum.
On the first day of the test a 0.8% suspension of Mycobacterium butyrium in paraffin (0.05 or 0.1 ml/paw) is injected subplantarly into the left hind paw of the animals. […] From the 19th to the 22nd day the animals showing a reaction are treated intragastrically with the test substances. The right paw having been marked above the ankle-joint, the volume is determined daily from the 19th to the 22nd or 23rd day, according to the process described under Example B.
The volume of liquid, as well as of the carrier administered, corresponded to that described in the above tests.

The test system of data set [5] is Yeast Edema of the Rat Paw. Description: Yeast edema and determination of pain threshold in the rat paw. The format is in vivo. The conditions noted are these: 3 h; for Volume (increase in paw volume, blank control = 100%) / Pain Threshold (change vs initial value): i.g. The procedure:
test animals are male rats (SIV 50) weighing 100 to 180 g. […] 10 animals belonged to each dosage group.
The volume of the paw is determined according to the method described by Enders and Heidbrink, the pain threshold according to that described by Randall and Selitto (Arch. Int. Pharmacodyn CXI: 409, 1957).
Following initial measurements, […] of a 5% suspension of dried yeast is injected subplantarly into the right paw and the test substances are administered immediately. The blank control group is given Tragacanth mucilage only. After 3 hours the pain threshold and the volume of the paw are determined again.
The mean value of the increase in paw volume of the animals of the blank control after 3 hours is rated 100%, and the mean value of the increase in paw volume of the animals of the substance groups expressed as a percentage thereof. Pain threshold after 3 hours reflects the increase or decrease in percent, compared to the initial value.
In order to be able to calculate the ED50 according to the method by Lichtfield and Wilcoxon (J.P.E.T. 96:99, 1949), those animals in a dose group are considered protected when the paw swelling was at least 40% less than that of the blank control.

Data set [6] concerns male mice (NMRI). Description: Hot-plate test (analgesia). The format is in vivo. Conditions: mouse. The procedure: male mice (NMRI) weighing 18 to 28 g are used as test animals. The animals are placed on a copper plate constantly kept at 55°C, and the time is measured until they lick their forepaws.
Following 3 initial measurements, the test substances are administered intragastrically. Afterwards the measurements are repeated over a period of 2 hours at intervals of 30 minutes. Each dose is administered to 10 animals selected from groups of 15 animals following the initial measurements.
The test substances are administered as a suspension in 1% Tragacanth mucilage, the volume of liquid amounting to 2 ml/100 g of body weight.
For the purpose of statistical evaluation according to Litchfield and Wilcoxon, those animals in which the reaction time has been extended by at least 100% are considered protected.
In general terms: Hot-plate and tail-flick tests time the reaction to a heat stimulus.

Data set [7] is described as follows: Summary: calculated ED50 and therapeutic ratio. The format is in vivo, rat. The procedure: From the ED50 and LD50 (A) the following therapeutic ratios for this test are calculated: […]
Data set [8] can be described thus: Overall summary of pharmacological results in words. The format is in vivo.
Data set [9] concerns increased body temperature of the rat. Kind of data set: Antipyresis (yeast-induced fever). The format is in vivo. Conditions: i.g. The procedure:
test animals are male rats (SIV 50) weighing 100 to 180 g. 16 hours prior to the beginning of the test a 12% suspension of dried yeast (1 or 2 ml/100 g of body weight) is injected subcutaneously. When the maximum of the increase in body temperature is reached, following 3 to 4 initial measurements, the test substances are applied intragastrically and the development of the body temperature is observed for a period of 7 hours.
The test substances administered are suspended in Tragacanth mucilage; the volume of liquid administered amounting to 2 ml/100 g of body weight. In this test 2 control groups are used, one given sodium chloride subcutaneously (normal temperature group) and to the other group a yeast suspension is administered subcutaneously but, instead of the test substances, Tragacanth mucilage is administered intragastrically (fever control group).

For data set [10], the system named is Granuloma Pouch. Description: Granuloma pouch test. Conditions: rat, i.g., 2 × 125 mg/kg daily. The format is in vivo. The procedure:
Under light ether anesthesia 25 ml of air are injected under the shaved skin of the back. 0.5 ml of croton oil/animal (0.05%) are injected into the pouch formed by the air, and evenly distributed over the back by turning the animal.
On the third day croton oil (3%, 0.5 ml/animal) is again injected into this pouch.
The average dry weights of the granuloma pouches and the quantities of secretion of the groups subjected to treatment are then compared with those of the control group and the percental deviations calculated.
At the end of some tests the suprarenal glands are removed and the weight of these organs is also determined.
The weight of the animals is measured daily and the changes determined as a percentage.

For data set [11], the system named is male mice (NMRI). The conditions noted are these: mouse, in vivo.
Data set [12] has as its system Granulation Tissue. Description: Cotton-pellet test (granulation tissue). The class given is in vivo. Conditions: rat, sc., section K; for increase in body weight %: control 27.
Data set [13] in a line: in vivo. The conditions noted are these: mouse.

Consider `CCCC1C(=O)N2C(N(C)C)=Nc3ccc(C)cc3N2C1=O` (stereo not drawn) [Azapropazone, 3-Dimethylamino-7-methyl-1,2-(n-propylmalonyl)-1,2-dihydro-1,2-benzotriazine-dihydrate], for which, in [1] (100.0 mg/kg), the “1st Phase (paw edema)” value is 72%, the “2nd Phase (paw edema)” value was 50% and the “3 Hrs. (total paw edema)” value is reported as 63%. Besides, in data set [1] (400.0 mg/kg), the “1st Phase (paw edema)” value is listed as 79%, the “2nd Phase (paw edema)” value worked out at 21% and the “3 Hrs. (total paw edema)” value is on record as 55%. In data set [2] (250.0 mg/kg), the “60 Minutes (paw edema)” value was 100%, the “120 Minutes (paw edema)” value worked out at 93% and the “180 Minutes (paw edema)” value came to 67%. Further, in [3] (2 × 150 mg/kg daily), the “Granulation Tissue % (Dry Weight)” value came to 76% and the “Increase in Body Weight” value was “not influenced”. Besides, the Swelling in [4] (2 × 250.0 mg/kg) came out at 91%. In addition, the “Volume (increase in paw volume, blank control = 100%)” value in data set [5] (250.0 mg/kg) is reported as 98%. In [5] (400.0 mg/kg), the “Pain Threshold (change vs initial value)” value is reported as -52% and the “Volume (increase in paw volume, blank control = 100%)” value is given as 100%. Further, in data set [6] (i.g.), the “Notes (analgesic activity)” value is reported as “ineffective”.
A word on the ED50: it is the dose at which the effect has come halfway, by size or by number of responders. For orientation: LD50 means the dose expected to kill half of the subjects tested. Take `CCOC(=N)c1sc2ccccc2c1O` [Example 2, Ethyl 3-Hydroxy-Benzo[b]Thiophene-2-Carboximidate]: in data set [1] (62.5 mg/kg), the “1st Phase (paw edema)” value amounted to 65%, the “2nd Phase (paw edema)” value is on record as 73% and the “3 Hrs. (total paw edema)” value is 62%. For the same molecule, in data set [1] (125.0 mg/kg), the “1st Phase (paw edema)” value was 65%, the “2nd Phase (paw edema)” value was 27% and the “3 Hrs. (total paw edema)” value came to 42%. Further, in data set [1] (250.0 mg/kg), the “1st Phase (paw edema)” value was determined as 29%, the “2nd Phase (paw edema)” value stood at 20% and the “3 Hrs. (total paw edema)” value was 25%. Also, the ED50 in data set [7] (Rattus norvegicus) is 93.1 mg/kg. Moreover, in data set [7] (from ED50 and LD50 (A)), the therapeutic ratio was 42.9. Also, in data set [2] (25.0 mg/kg), the “60 Minutes (paw edema)” value came out at 36%, the “120 Minutes (paw edema)” value came to 44% and the “180 Minutes (paw edema)” value is 50%. In data set [2] (50.0 mg/kg), the “60 Minutes (paw edema)” value came to 62%, the “120 Minutes (paw edema)” value is reported as 40% and the “180 Minutes (paw edema)” value is 5%. Moreover, in data set [3] (2 × 75 mg/kg daily), the “Granulation Tissue % (Dry Weight)” value was 78% and the “Increase in Body Weight” value is given as “not influenced”. Moreover, in [8] (all test models), the anti-inflammatory effect entry was “proved in all test models; also recorded: of the same order as that of the most potent commercially available anti-inflammatory preparations”. Further, the analgesic activity result in [8] (compared to customary anti-inflammatory preparations) is “particularly marked”. In addition, the anti-inflammatory effect result in data set [8] (doses as low as 50 mg/kg) is listed as “clear anti-inflammatory effect”. Besides, in data set [8] (in vivo), the “toxicity levels vs standard substances” value was “very favorable”. In addition, in data set [4] (2 × 125.0 mg/kg), the Swelling turned out to be 81%. Besides, in data set [9] (150 mg/kg vs 300 mg/kg acetylsalicylic acid), the antipyretic effect result is given as “considerably more effective than 300 mg/kg of acetylsalicylic acid”. Further, in data set [9] (yeast fever, vs control substances), the “antipyretic effect (decreasing body temperature)” value was “superiority of the Example 2 substance for decreasing body temperature; also recorded: stronger than that of comparable substances”. Further, in data set [5] (31.2 mg/kg), the “Pain Threshold (change vs initial value)” value is recorded as “+10%” and the “Volume (increase in paw volume, blank control = 100%)” value was determined as 77%. Also, in [5] (62.5 mg/kg), the “Pain Threshold (change vs initial value)” value is “+46%” and the “Volume (increase in paw volume, blank control = 100%)” value is recorded as 50%. Besides, the “Volume (increase in paw volume, blank control = 100%)” value in [5] (125.0 mg/kg) is listed as 35%. Further, in data set [10], the “Granuloma Pouch Dry Weight” value was 70%, the “Increase in Body Weight” value is listed as “not influenced” and the Secretion is recorded as 59%. Further, the analgesic activity result in [6] (as shown in (H)) was “sufficient analgesic activity”. This molecule also came in with an LD50 in [11] of 3.890 mg/kg.
As for `CCN(CC)CCNC(=N)c1sc2ccccc2c1O` [Example 30], the “granulation tissue % dry weight” value worked out at 82% in [12] (2×50,0 mg/kg daily) and 68% in data set [3] (sc., 2×75,0 mg/kg daily, section K). Moreover, the “increase in body weight %” value in [12] (2×50,0 mg/kg daily) and in [12] (2×75,0 mg/kg daily) was 27% in each case. Further, the LD50 in data set [13] (po) and in data set [13] (sc) was ~1000 mg/kg in each case. The change in vivo at 150 mg/kg in data set [5] (sc., 150 mg/kg, section K (control -26)) is 18%. Besides, the response vs control in vivo at 150 mg/kg in [5] (sc., 150 mg/kg, section K, read-out: volume (paw, control = 100%)) is 53%.
